Data as given in article PMC8000919, “Validation of an LC-MS/MS Method to Quantify the New TRPC6 Inhibitor SH045 (Larixyl N-methylcarbamate) and Its Application in an Exploratory Pharmacokinetic Study in Mice” (Pharmaceuticals, 2021).
Like-named read-outs stand apart in the source and are kept apart here.

Assays:
[1] = Plasma protein binding (PPB) by ultrafiltration; type: in vitro ADME; conditions: mouse plasma
Description: PPB of SH045 in mice plasma was determined at two concentrations, 100 and 800 ng/mL, using ultrafiltration. For that, 2 µL of working solutions of SH045 in DMSO (final concentration […]) were mixed with 298 µL blank plasma and incubated at 37 °C for 30 min. To determine the total concentration of SH045, 60 µL sample were taken out. The remaining 240 µL of spiked plasma were transferred to a centrifugal filter (Centrifugal Filter Units, 30 kDa cut-off, Millipore, County Cork, Ireland) and centrifuged at room temperature for 10 min at 1000× g. The filtrates were analyzed for the unbound SH045. The PPB was calculated as PPB (%) = (Ct − Cf)/Ct × 100, with Ct as total SH045 concentration in spiked plasma and Cf as unbound SH045 concentration in the filtrate.

[2] = system: TRPC6; set-up: method as in PMID 29522264; conditions: patch-clamp recordings; read-out: IC50 to block inward currents; cited from earlier work
[3] = system: TRPC3/6 channels of rat PASMC; set-up: method as in PMID 29522264; conditions: 1-oleyl-2-acetyl-sn-glycerol (OAG)-induced; cited from earlier work
[4] = system: TRPC3; set-up: method as in PMID 29522264; conditions: TRPC6 over TRPC3; cited from earlier work
[5] = Exploratory plasma pharmacokinetics in mice after single i.p. administration, non-compartmental analysis; type: in vivo
Description: The practicability of the validated method for SH045 quantification was verified in a first exploratory pharmacokinetic study in mice. Male C57BL/6 mice (25–30 g body weight, Charles River, Sulzfeld, Germany) were housed in groups under standard conditions, allowed access to lab chow and water ad libitum. Animal experiments were performed according to the national regulations of animal welfare and were ethically approved by the local committee on animal welfare and the local authorities. Animal experiments were performed under strict consideration of the 3R principles (replace, reduce, refine), fully complying with the ARRIVE guidelines.
Solutions of SH045 for i.p. administration were prepared with DMSO (final concentration 0.5%) and Kolliphor® EL (5% in water). SH045 was administered i.p. as a single dose of 20 mg/kg body weight. Blood was collected from mice tail vein at 5, 15, 30, 60, 120, 180 and 360 min after administration via heparinized catheters. After centrifugation at 4000× g at 4 °C for 10 min, plasma was stored at −80 °C until analysis.
For sample preparation, 20 µL of thawed plasma were mixed with 2 µL of IS (50 µg/mL), vortexed for 30 s, added with 178 µL ice-cold ACN and shaken vigorously for 5 min. After centrifugation at 104,000× g for 15 min, the supernatant was filtered through a 0.2 µm pore-size syringe filter (Phenex-RC 4 mm, Phenomenex, Aschaffenburg, Germany) and stored in the autosampler at 6 °C until analysis by LC-MS/MS, as mentioned above.
The evaluation of basic pharmacokinetic parameters of SH045 (20 mg/kg, i.p.) following a single dose was performed by non-compartmental analysis using a commercially available software program Kinetica, version 5.1 (Thermo Fisher Scientific, Waltham, MA, USA). The Cmax and Tmax were obtained directly from the plasma concentration-time curve. The slope of the terminal phase of the SH045 concentration profile (ʎz) was estimated as absolute values from >4 data points using a log-linear regression analysis.
The area under the plasma concentration-time curve (AUC) for the time (t) providing the final measurable concentration (AUClast) was calculated using the log-linear trapezoidal rule.
The AUC0–∞ was then determined as AUClast + Clast/ʎz, where Clast is the last measurable concentration. The systemic total body clearance from plasma (CLp) was calculated as applied dose divided by AUC0–∞. MRT was calculated as AUMC0–∞/AUC0–∞, where area under the first-moment curve (AUMC) was defined as area under the curve of the product of time and the plasma drug concentration versus time from zero to infinity.
The volume of distribution, VZ, was calculated as CLp/ʎz. Finally, the AUCextra extrapolates the AUC from the last measured time point to infinity.

[6] = Stability in stock and working solutions; type: physicochemical; conditions: nominal 1000 ng/mL
Description: Analytic stock solutions of SH045 and of IS (1 mg/mL each) were prepared in ACN and stored at −20 °C. Working solutions of SH045 and of IS (50 µg/mL) were freshly prepared by dilution with water/ACN 1:1 (v/v). Calibration and QC samples were prepared by addition of 2 μL SH045 working solutions and 2 μL IS solution to 18 μL of blank plasma, further processed identically to the preparation of plasma (see below). Freshly prepared calibration samples for SH045 in plasma comprised eight concentration levels analyzed in duplicates (2, 5, 10, 100, 200, 800, 1200 and 1600 ng/mL).
The stability of SH045 and IS in stock solutions stored at −20 °C for 28 days and in working solutions stored at 4 °C for 12 h was determined comparing the analyzed with the nominal concentration and accepted when accuracy was within 15%.

[7] = system: TRPC6; set-up: method as in PMID 29522264; conditions: stably TRPC6-transfected HEK293 cells; read-out: IC50 to inhibit Ca2+ influx; cited from earlier work
[8] = system: ischemic lungs explanted from mice; set-up: method as in PMID 29522264; conditions: ex vivo model of LIRE; cited from earlier work
[9] = Stability in plasma QC samples under storage conditions; type: physicochemical, mice; conditions: for Stability in autosampler, Accuracy / Stability in autosampler, Mean ± SEM: extracted plasma QC samples, 6 °C; for Stability in autosampler, Accuracy / Stability in autosampler, Mean ± SEM / Freeze and thaw stability, Accuracy / Freeze and thaw stability, Mean ± SEM: 12 h; for Short-term stability, Accuracy / Short-term stability, Mean ± SEM / Freeze and thaw stability, Accuracy / Freeze and thaw stability, Mean ± SEM / Long-term stability, Accuracy / Long-term stability, Mean ± SEM: plasma QC samples; for Short-term stability, Accuracy / Short-term stability, Mean ± SEM: 25 °C, 4 h; for Freeze and thaw stability, Accuracy / Freeze and thaw stability, Mean ± SEM / Long-term stability, Accuracy / Long-term stability, Mean ± SEM: −20 °C; for Freeze and thaw stability, Accuracy / Freeze and thaw stability, Mean ± SEM: 3 cycles; for Long-term stability, Accuracy / Long-term stability, Mean ± SEM: 30 days
Description: […] The accuracy of the mean concentration at each of the three QC levels was accepted within ±15% of nominal concentration. All stability experiments were carried out in three replicates.

[10] = male, C57BL/6, mouse, ip, mice plasma, single dose 20 mg/kg body weight
[11] = stock solution, −20 °C, 28 days

**Q.** For C=C[C@@](C)(O)CC[C@H]1C(=C)C[C@H](OC(=O)NC)[C@H]2C(C)(C)CCC[C@]12C [SH045, (1S,4S,4aR,8aS)-4-((S)-3-Hydroxy-3-methylpent-4-en-1-yl)-4a,8,8-trimethyl-3-methylenedecahydronaphthalen-1-yl methylcarbamate], which fraction unbound at 30 min, 100 ng/mL ([1]; 100 ng/mL SH045, ultrafiltration) is on record?
**A.** Its fraction unbound at 30 min, 100 ng/mL is 0.022.

**Q.** And the fraction unbound at 30 min, 800 ng/mL ([1]; 800 ng/mL SH045, ultrafiltration)?
**A.** The fraction unbound at 30 min, 800 ng/mL was 0.003.

**Q.** And the IC50 [2]?
**A.** The IC50 was 5.8 nM.

**Q.** What about the “effect on OAG-induced Ca2+ entry” value [3] of the same compound?
**A.** The value was “inhibited”.

**Q.** And the “subtype selectivity over TRPC3” value [4]?
**A.** The value was 13 fold.

**Q.** And the “plasma concentration relative to IC50 for Ca2+ influx” value ([5]; five hours after administration of 20 mg/kg)?
**A.** The value was “at least two-fold higher”.

**Q.** What about the AUC(0-inf) [5, 10] of the same compound?
**A.** The AUC(0-inf) was 1470 ng·h/mL.

**Q.** And the AUC(0-t) [5, 10]?
**A.** The AUC(0-t) was 1410 ng·h/mL.

**Q.** What about the Cmax [5, 10] of the same compound?
**A.** The Cmax was 756 ng/mL.

**Q.** What about the MRT [5, 10] of the same compound?
**A.** Its MRT is 1.9 h.

**Q.** And the Tmax [5, 10]?
**A.** Its Tmax is 0.5 h.

**Q.** What about the half-life ([5]; male, C57BL/6, mouse, plasma, ip, 20 mg/kg, mice plasma, single dose 20 mg/kg body weight) of the same compound?
**A.** The half-life was 1.3 h.

**Q.** What about the T1/2 ([5]; mice plasma, single dose 20 mg/kg body weight, i.p., 20 mg/kg) of the same compound?
**A.** The T1/2 was 1.31 h.

**Q.** What about the “% AUC (AUCextra as percent)” value ([5]; mice plasma, single dose 20 mg/kg i.p., extrapolated part of AUC) of the same compound?
**A.** The value was 4.3%.

**Q.** What about the “Stability, Accuracy” value [6, 11] of the same compound?
**A.** Its value is 106.6%.

**Q.** And the “Stability, Mean ± SEM” value [6, 11]?
**A.** The value was 1066 ± 9 ng/mL.

**Q.** What about the “Stability, Accuracy” value ([6]; working solution, 4 °C, 12 h) of the same compound?
**A.** The value was 103.7%.

**Q.** And the “Stability, Mean ± SEM” value ([6]; working solution, 4 °C, 12 h)?
**A.** The value was 1037 ± 10 ng/mL.

**Q.** What about the IC50 [7] of the same compound?
**A.** The IC50 was 63 nM.

**Q.** What about the “edema formation after reperfusion” value [8] of the same compound?
**A.** The value was “reduced edema formation”.

**Q.** And the “Stability in autosampler, Accuracy” value ([9]; nominal 5 ng/mL)?
**A.** Its value is 99.0%.

**Q.** And the “Stability in autosampler, Mean ± SEM” value ([9]; nominal 5 ng/mL)?
**A.** The value was 5.0 ± 0.2 ng/mL.

**Q.** What about the “Stability in autosampler, Accuracy” value ([9]; nominal 800 ng/mL) of the same compound?
**A.** The value was 100.8%.

**Q.** What about the “Stability in autosampler, Mean ± SEM” value ([9]; nominal 800 ng/mL) of the same compound?
**A.** Its value is 807 ± 28 ng/mL.

**Q.** What about the “Stability in autosampler, Accuracy” value ([9]; nominal 1200 ng/mL) of the same compound?
**A.** The value was 104.7%.

**Q.** And the “Stability in autosampler, Mean ± SEM” value ([9]; nominal 1200 ng/mL)?
**A.** The value was 1256 ± 50 ng/mL.

**Q.** What about the “Short-term stability, Accuracy” value ([9]; nominal 5 ng/mL) of the same compound?
**A.** The value was 107.6%.

**Q.** And the “Short-term stability, Mean ± SEM” value ([9]; nominal 5 ng/mL)?
**A.** Its value is 5.4 ± 0.1 ng/mL.

**Q.** And the “Short-term stability, Accuracy” value ([9]; nominal 800 ng/mL)?
**A.** Its value is 101.9%.

**Q.** What about the “Short-term stability, Mean ± SEM” value ([9]; nominal 800 ng/mL) of the same compound?
**A.** The value was 816 ± 2 ng/mL.

**Q.** And the “Short-term stability, Accuracy” value ([9]; nominal 1200 ng/mL)?
**A.** Its value is 98.8%.

**Q.** And the “Short-term stability, Mean ± SEM” value ([9]; nominal 1200 ng/mL)?
**A.** The value was 1186 ± 36 ng/mL.

**Q.** And the “Freeze and thaw stability, Accuracy” value ([9]; nominal 5 ng/mL)?
**A.** Its value is 97.2%.

**Q.** What about the “Freeze and thaw stability, Mean ± SEM” value ([9]; nominal 5 ng/mL) of the same compound?
**A.** The value was 4.9 ± 0.2 ng/mL.

**Q.** What about the “Freeze and thaw stability, Accuracy” value ([9]; nominal 800 ng/mL) of the same compound?
**A.** Its value is 90.1%.

**Q.** And the “Freeze and thaw stability, Mean ± SEM” value ([9]; nominal 800 ng/mL)?
**A.** The value was 721 ± 8 ng/mL.

**Q.** What about the “Freeze and thaw stability, Accuracy” value ([9]; nominal 1200 ng/mL) of the same compound?
**A.** Its value is 90.2%.

**Q.** And the “Freeze and thaw stability, Mean ± SEM” value ([9]; nominal 1200 ng/mL)?
**A.** Its value is 1083 ± 41 ng/mL.

**Q.** And the “Long-term stability, Accuracy” value ([9]; nominal 5 ng/mL)?
**A.** The value was 107.3%.

**Q.** What about the “Long-term stability, Mean ± SEM” value ([9]; nominal 5 ng/mL) of the same compound?
**A.** Its value is 5.4 ± 0.3 ng/mL.

**Q.** And the “Long-term stability, Accuracy” value ([9]; nominal 800 ng/mL)?
**A.** Its value is 95.4%.

**Q.** And the “Long-term stability, Mean ± SEM” value ([9]; nominal 800 ng/mL)?
**A.** The value was 763 ± 9 ng/mL.

**Q.** And the “Long-term stability, Accuracy” value ([9]; nominal 1200 ng/mL)?
**A.** Its value is 99.9%.

**Q.** What about the “Long-term stability, Mean ± SEM” value ([9]; nominal 1200 ng/mL) of the same compound?
**A.** Its value is 1199 ± 29 ng/mL.
